The target of the test is Excitatory amino acid transporter 3 (Homo sapiens) (UniProt P43005). The experiment in a line: SLC1A1 substrate-evoked membrane depolarization, dose response, membrane potential dye, HEK-293 overexpressing cells (AID 1794812). The note with it: HEK-293 SLC1A1 OE, FLIPR membrane potential dye.

Here are results for one compound from PubChem BioAssay AID1794812.

The structures appear in SMILES notation. pEC50: −log10 of the molar value. Records with an inconclusive call do not appear.

Chain of Excitatory amino acid transporter 3 (Homo sapiens) (P43005 whole entry, looked up): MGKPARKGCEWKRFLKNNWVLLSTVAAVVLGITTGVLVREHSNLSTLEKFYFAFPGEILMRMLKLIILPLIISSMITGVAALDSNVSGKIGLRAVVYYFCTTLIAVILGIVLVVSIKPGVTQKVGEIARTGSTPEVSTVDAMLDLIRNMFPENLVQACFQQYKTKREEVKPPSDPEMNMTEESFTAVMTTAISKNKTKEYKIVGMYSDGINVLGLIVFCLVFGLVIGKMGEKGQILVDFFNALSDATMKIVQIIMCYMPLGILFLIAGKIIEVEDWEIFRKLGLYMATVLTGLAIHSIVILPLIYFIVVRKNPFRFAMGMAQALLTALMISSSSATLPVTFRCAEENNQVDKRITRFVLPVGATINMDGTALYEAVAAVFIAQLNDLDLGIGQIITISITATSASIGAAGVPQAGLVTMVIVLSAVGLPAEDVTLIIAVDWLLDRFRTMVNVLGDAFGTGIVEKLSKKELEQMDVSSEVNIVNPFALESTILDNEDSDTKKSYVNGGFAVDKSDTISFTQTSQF

With `N[C@@H](CS)C(=O)O`, the pEC50 was 3.79.
